Experimental data as given in US20220265692A1, “ORALLY-ADMINISTERED PHARMACEUTICAL COMPOSITION FOR ERADICATING ANTIBIOTIC-RESISTANT HELICOBACTER PYLORI, COMPRISING COMPLEX OF NON-ABSORBABLE ANTIBIOTIC AND CLAY MINERAL” (priority 2019, published 2022).
Read-outs that look alike come from different tables or passages of the source.

How the values were obtained:
[1] = system: Helicobacter pylori clinical strains; experiment: Evaluation of antibiotic resistant rate (in vitro MIC, 187 clinical strains); assay type: cell-based
Method: Complexes of antibiotics (amoxicillin, clarithromycin, metronidazole, levofloxacin, and tetracyclin) and smectite which have been actually used for Helicobacter eradication treatment in current clinical trials were prepared and in vitro MIC for non-absorbable antibiotic candidate groups gentamicin, netilmicin, tobramycin, amikacin) to be used as a novel therapeutic agent was measured, and MIC50 and MIC90 were confirmed. To this end, 187 cultured positive clinical strains obtained from 1,265 patient samples were used.

[2] = system: clarithromycin-resistant Helicobacter pylori; experiment: Eradication activity in vitro on clarithromycin-resistant strain (disk); assay type: cell-based; conditions: strain with MIC of CLR 48 mg/L, twice repeated tests
Text: Clarithromycin-resistant Helicobacter pylori was applied (red) in a medium and then a sample was made in a disk form and placed on the medium to measure the eradication effect. At this time, it was meant that if red disappeared around the disk, there was the eradication effect.

Helicobacter pylori = conditions: general statement; cited from earlier work

Compound: NCC[C@H](O)C(=O)N[C@@H]1C[C@H](N)[C@@H](O[C@H]2O[C@H](CN)[C@@H](O)[C@H](O)[C@H]2O)[C@H](O)[C@H]1O[C@H]1O[C@H](CO)[C@@H](O)[C@H](N)[C@H]1O [amikacin]
- resistant rate ([1]; based on MIC 1 μg/ml): 61.3%

Compound: CC[C@H]1OC(=O)[C@H](C)[C@@H](O[C@H]2C[C@@](C)(OC)[C@@H](O)[C@H](C)O2)[C@H](C)[C@@H](O[C@@H]2O[C@H](C)C[C@H](N(C)C)[C@H]2O)[C@](C)(OC)C[C@@H](C)C(=O)[C@H](C)[C@@H](O)[C@]1(C)O [clarithromycin]
- eradication effect on clarithromycin-resistant H. pylori (clear zone around disk) [2]: the clear zone was not shown
- resistant rate [1]: 29.8%

Compound: gentamicin
- resistant rate ([1]; based on MIC 1 μg/ml): 2.78%

Compound: CCN[C@@H]1C[C@H](N)[C@@H](O[C@H]2OC(CN)=CC[C@H]2N)[C@H](O)[C@H]1O[C@H]1OC[C@](C)(O)[C@H](NC)[C@H]1O [netilmicin]
- resistant rate ([1]; based on MIC 1 μg/ml): 1.43%

Compound: CC1(C)S[C@@H]2[C@H](NC(=O)[C@H](N)c3ccc(O)cc3)C(=O)N2[C@H]1C(=O)O [Amoxicilin, amoxicillin]
- resistance (Helicobacter pylori): less than 10%

Compound: C[C@H]1COc2c(N3CCN(C)CC3)c(F)cc3c(=O)c(C(=O)O)cn1c23 [levofloxacin]
- resistant rate [1]: 37.2%

Compound: NC[C@H]1O[C@H](O[C@H]2[C@H](O)[C@@H](O[C@H]3O[C@H](CO)[C@@H](O)[C@H](N)[C@H]3O)[C@H](N)C[C@@H]2N)[C@H](N)C[C@@H]1O [tobramycin]
- resistant rate ([1]; based on MIC 1 μg/ml): 36.3%
